Results from PubChem BioAssay AID330 (DTP/NCI, 2004).
Values joined by “and” are separate entries in the source; they are usually repeats but may differ in a detail not shown here. Identical values can stand only once. Toxic doses and inconclusive results are not listed.

Tested on: P388 leukemia ip, CD2F1 mice, survival T/C
Test: NCI In Vivo Anticancer Drug Screen. Data for tumor model P388 Leukemia (intraperitoneal) in CD2F1 (CDF1) mice
Settings: endpoint: median survival time, higher = longer survival
Method in brief: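 Mice carrying the transplanted tumor received test compound or vehicle. Survival was recorded in each group, and the value is the treated-group measurement divided by that of the vehicle-treated control group.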

[1] = dose: 50.0 mg/kg/injection, schedule: Q01DX009 (ip), vehicle: saline with Tween-80
[2] = dose: 100.0 mg/kg/injection, schedule: Q01DX009 (ip), vehicle: saline with Tween-80
[3] = dose: 200.0 mg/kg/injection, schedule: Q01DX009 (ip), vehicle: saline with Tween-80
[4] = dose: 100.0 mg/kg/injection, schedule: Q01DX001 (ip), vehicle: saline with Tween-80
[5] = dose: 200.0 mg/kg/injection, schedule: Q01DX001 (ip), vehicle: saline with Tween-80
[6] = dose: 50.0 mg/kg/injection, schedule: Q01DX005 (ip), vehicle: Klucel (hydroxypropylcellulose) (HPC)
[7] = dose: 50.0 mg/kg/injection, schedule: Q01DX009 (ip), vehicle: Klucel (hydroxypropylcellulose) (HPC)
[8] = dose: 100.0 mg/kg/injection, schedule: Q01DX009 (ip), vehicle: Klucel (hydroxypropylcellulose) (HPC)
[9] = dose: 200.0 mg/kg/injection, schedule: Q01DX009 (ip), vehicle: Klucel (hydroxypropylcellulose) (HPC)
[10] = dose: 25.0 mg/kg/injection, schedule: Q01DX009 (ip), vehicle: saline with Tween-80
[11] = dose: 100.0 mg/kg/injection, schedule: Q04DX003 (ip), vehicle: saline with Tween-80
[12] = dose: 200.0 mg/kg/injection, schedule: Q04DX003 (ip), vehicle: saline with Tween-80
[13] = dose: 400.0 mg/kg/injection, schedule: Q04DX003 (ip), vehicle: saline with Tween-80

With CCC1C2C(C(C)c3c[nH]c4ccccc34)NC(=O)C23C(=O)/C=C\C(=O)C(O)/C(C)=C/C(C)C/C=C/C3C2OC12C (stereo not given) the T/C (dose: 0.38 mg/kg/injection, schedule: Q01DX005 (ip), vehicle: Klucel (hydroxypropylcellulose) (HPC)) was 105 % of control and 108 % of control, the T/C (dose: 0.75 mg/kg/injection, schedule: Q01DX005 (ip), vehicle: Klucel (hydroxypropylcellulose) (HPC)) was 110 % of control and 118 % of control and the T/C (dose: 1.5 mg/kg/injection, schedule: Q01DX005 (ip), vehicle: Klucel (hydroxypropylcellulose) (HPC)) was 106 % of control and 122 % of control.
For Cc1c2cnccc2c(C)c2c1c1c(C)c3cnccc3c(C)c1n2C, the T/C (dose: 6.25 mg/kg/injection, schedule: Q04DX002 (ip), vehicle: distilled water + Tween-80) was 94 % of control, the T/C (dose: 12.5 mg/kg/injection, schedule: Q04DX002 (ip), vehicle: distilled water + Tween-80) was 97 % of control and the T/C (dose: 25.0 mg/kg/injection, schedule: Q04DX002 (ip), vehicle: distilled water + Tween-80) was 102 % of control. For the same compound, the T/C (dose: 50.0 mg/kg/injection, schedule: Q04DX002 (ip), vehicle: distilled water + Tween-80) was 108 % of control and the T/C (dose: 100.0 mg/kg/injection, schedule: Q04DX002 (ip), vehicle: distilled water + Tween-80) was 94 % of control.
Nc1ccncc1C(=O)O was tested, and the T/C [1] was 99 % of control, the T/C [2] was 99 % of control and the T/C [3] was 96 % of control.
For C/C(CC(O)(c1ccccc1)c1ccccc1)=N\SC(c1ccccc1)(c1ccccc1)c1ccccc1, the T/C [4] was 106 % of control, the T/C [5] was 100 % of control and the T/C (dose: 400.0 mg/kg/injection, schedule: Q01DX001 (ip), vehicle: saline with Tween-80) was 98 % of control.
With CC(=O)C1=C(C)O/C(=C/c2ccc(Cl)cc2)C1=O the T/C (dose: 25.0 mg/kg/injection, schedule: Q01DX005 (ip), vehicle: saline with Tween-80) was 118 % of control, the T/C (dose: 50.0 mg/kg/injection, schedule: Q01DX005 (ip), vehicle: saline with Tween-80) was 118 % of control and 120 % of control and the T/C (dose: 100.0 mg/kg/injection, schedule: Q01DX005 (ip), vehicle: saline with Tween-80) was 119 % of control and 124 % of control.
With FC(F)(F)c1c[nH]cc1C(F)(F)F the T/C (dose: 50.0 mg/kg/injection, schedule: Q04DX002 (ip), vehicle: Klucel (hydroxypropylcellulose) (HPC)) was 109 % of control.
In the case of Cn1c2ccccc2c2nnc(N/N=C/c3cccs3)nc21, the T/C (dose: 400.0 mg/kg/injection, schedule: Q04DX002 (ip), vehicle: saline with Tween-80) is reported as 105 % of control and 91 % of control.
For O=C(OCCCl)c1ccccc1NC(=O)N1CCOCC1, the T/C [6] was 105 % of control, the T/C (dose: 100.0 mg/kg/injection, schedule: Q01DX005 (ip), vehicle: Klucel (hydroxypropylcellulose) (HPC)) was 99 % of control and the T/C (dose: 200.0 mg/kg/injection, schedule: Q01DX005 (ip), vehicle: Klucel (hydroxypropylcellulose) (HPC)) was 98 % of control.
For NC1=N[C@H]2CS[C@@H](CCCCC(=O)ON3C(=O)CCC3=O)[C@H]2N1, the T/C (dose: 60.0 mg/kg/injection, schedule: Q01DX005 (ip), vehicle: saline) was 98 % of control, the T/C (dose: 120.0 mg/kg/injection, schedule: Q01DX005 (ip), vehicle: saline) was 100 % of control and the T/C (dose: 240.0 mg/kg/injection, schedule: Q01DX005 (ip), vehicle: saline) was 98 % of control.
For CCOc1ccc(NC(=O)OCc2c3ccccc3cc3ccccc23)cc1, the T/C [7] was 100 % of control, the T/C [8] was 96 % of control and the T/C [9] was 105 % of control.
With COc1ccc(-n2c(=O)c(N=Nc3ccccc3OC)c(O)n(-c3ccccc3Cl)c2=S)cc1 the T/C (dose: 50.0 mg/kg/injection, schedule: Q01DX001 (ip), vehicle: Klucel (hydroxypropylcellulose) (HPC)) was 100 % of control, the T/C (dose: 100.0 mg/kg/injection, schedule: Q01DX001 (ip), vehicle: Klucel (hydroxypropylcellulose) (HPC)) was 99 % of control and the T/C (dose: 200.0 mg/kg/injection, schedule: Q01DX001 (ip), vehicle: Klucel (hydroxypropylcellulose) (HPC)) was 93 % of control.
COc1ccc(N/C=C2\C(=O)CCc3c2oc2cc(Cl)c(O)c(Cl)c32)cc1 was tested, and the T/C (dose: 15.0 mg/kg/injection, schedule: Q01DX005 (ip), vehicle: Klucel (hydroxypropylcellulose) (HPC)) was 93 % of control, the T/C (dose: 30.0 mg/kg/injection, schedule: Q01DX005 (ip), vehicle: Klucel (hydroxypropylcellulose) (HPC)) was 99 % of control and the T/C (dose: 60.0 mg/kg/injection, schedule: Q01DX005 (ip), vehicle: Klucel (hydroxypropylcellulose) (HPC)) was 107 % of control and 93 % of control. The T/C (dose: 120.0 mg/kg/injection, schedule: Q01DX005 (ip), vehicle: Klucel (hydroxypropylcellulose) (HPC)) was 102 % of control.
O=C([O][Bi]([c]1ccccc1)[c]1ccccc1)c1ccccc1 was tested, and the T/C (dose: 6.25 mg/kg/injection, schedule: Q01DX005 (ip), vehicle: Klucel (hydroxypropylcellulose) (HPC)) was 113 % of control, the T/C (dose: 12.5 mg/kg/injection, schedule: Q01DX005 (ip), vehicle: Klucel (hydroxypropylcellulose) (HPC)) was 106 % of control and the T/C (dose: 25.0 mg/kg/injection, schedule: Q01DX005 (ip), vehicle: Klucel (hydroxypropylcellulose) (HPC)) was 102 % of control and 106 % of control. For the same compound, the T/C [6] was 122 % of control.
C=C(CN1CCCC1)C(=O)c1ccc(OC)cc1 was tested, and the T/C (dose: 0.93 mg/kg/injection, schedule: Q01DX005 (ip), vehicle: saline) was 97 % of control, the T/C (dose: 1.87 mg/kg/injection, schedule: Q01DX005 (ip), vehicle: saline) was 117 % of control and the T/C (dose: 3.75 mg/kg/injection, schedule: Q01DX005 (ip), vehicle: saline) was 108 % of control.
In the case of Nc1c(Cl)c(Cl)nc(C(=O)O)c1Cl, the T/C (dose: 25.0 mg/kg/injection, schedule: Q01DX009 (ip), vehicle: Klucel (hydroxypropylcellulose) (HPC)) is reported as 101 % of control, the T/C [10] is reported as 102 % of control and the T/C [7] is reported as 86 % of control. The T/C [1] was 100 % of control, the T/C [8] was 93 % of control and the T/C [2] was 100 % of control. The T/C [9] was 93 % of control, the T/C [3] was 111 % of control and the T/C (dose: 400.0 mg/kg/injection, schedule: Q01DX009 (ip), vehicle: saline with Tween-80) was 115 % of control.
In the case of O=C1c2cccc(Oc3ccccc3)c2C(=O)c2cccc(Oc3ccccc3)c21, the T/C [11] is reported as 95 % of control, the T/C [12] is reported as 86 % of control and the T/C [13] is reported as 90 % of control.
For CCCCCCCCCCCCCCCC(=O)Nc1ccn(C2OC(CO)C(O)C2O)c(=O)n1 (stereo not given), the T/C (dose: 3.12 mg/kg/injection, schedule: Q01DX009 (ip), vehicle: suspension in saline) was 172 % of control, the T/C (dose: 6.25 mg/kg/injection, schedule: Q01DX009 (ip), vehicle: suspension in saline) was 188 % of control and the T/C (dose: 12.5 mg/kg/injection, schedule: Q01DX009 (ip), vehicle: suspension in saline) was 191 % of control and 235 % of control. The T/C (dose: 25.0 mg/kg/injection, schedule: Q01DX009 (ip), vehicle: suspension in saline) was 260 % of control and 283 % of control.
CCCCCCCCCC(=O)Nc1ncc([N+](=O)[O-])s1 was tested, and the T/C [7] was 94 % of control, the T/C [8] was 91 % of control and the T/C [9] was 94 % of control.
With O=C1C2CCC(C2)C1C(O)(C(F)(F)F)C(F)(F)F (stereo not given) the T/C [10] was 109 % of control, the T/C (dose: 25.0 mg/kg/injection, schedule: Q04DX003 (ip), vehicle: saline with Tween-80) was 109 % of control and the T/C [1] was 100 % of control. For the same compound, the T/C (dose: 50.0 mg/kg/injection, schedule: Q04DX003 (ip), vehicle: saline with Tween-80) was 100 % of control, the T/C [2] was 104 % of control and the T/C [11] was 90 % of control.
For CC(C)c1cc(C(=O)[O-])c(O)c(C(C)C)c1.CC(C)c1cc(C(=O)[O-])c(O)c(C(C)C)c1.CC1OC(O[C@H]2/C=C/C=C/C=C/C=C/C=C/C=C/C=C/C(C)[C@@H](O)C(C)C(C)OC(=O)C[C@H](O)C[C@H](O)CC[C@@H](O)[C@H](O)C[C@H](O)C[C@]3(O)CC(O)[C@@H](C(=O)O)[C@H](C2)O3)C(O)C(N)C1O.[Cu+2] (stereo not given in full), the T/C (dose: 12.5 mg/kg/injection, schedule: Q04DX002 (ip), vehicle: saline with Tween-80) was 103 % of control, the T/C (dose: 25.0 mg/kg/injection, schedule: Q04DX002 (ip), vehicle: saline with Tween-80) was 97 % of control and the T/C (dose: 50.0 mg/kg/injection, schedule: Q04DX002 (ip), vehicle: saline with Tween-80) was 91 % of control.
For CCO/C=C1\SC(=S)N(c2ccco2)C1=O, the T/C [11] was 118 % of control, the T/C [12] was 118 % of control and the T/C [13] was 104 % of control.
In the case of C1CCC2C(C1)CCC1CCCCC12 (stereo not given), the T/C (dose: 25.0 mg/kg/injection, schedule: Q01DX001 (ip), vehicle: saline with Tween-80) is reported as 96 % of control, the T/C (dose: 50.0 mg/kg/injection, schedule: Q01DX001 (ip), vehicle: saline with Tween-80) is reported as 113 % of control and the T/C [4] is reported as 100 % of control and 114 % of control. For the same compound, the T/C [5] was 110 % of control.
For CC(C)CC(=O)Nc1ccc(S(=O)(=O)Cl)cc1, the T/C (dose: 100.0 mg/kg/injection, schedule: Q01DX009 (ip), vehicle: saline) was 100 % of control, the T/C (dose: 200.0 mg/kg/injection, schedule: Q01DX009 (ip), vehicle: saline) was 90 % of control and the T/C (dose: 400.0 mg/kg/injection, schedule: Q01DX009 (ip), vehicle: saline) was 90 % of control.
